In patent US20130072404A1, “APPARATUS AND PROCESSES FOR GENERATING VARIABLE CONCENTRATION OF SOLUTES IN MICRODROPLETS” (UNIVERSITE DE STRASBOURG, priority 2009, published 2013):

Key:
Format in all cases: biochemical
[1] = target: T1, protein tyrosine phosphatase 1B (PTP1B) (Homo sapiens, UniProt P18031); assay: High-resolution dose-response screening of PTP1B with a chemical library in droplets, FDP substrate
T1 construct: purchased EMD Biosciences, Inc
T1 sequence (P18031 1-435): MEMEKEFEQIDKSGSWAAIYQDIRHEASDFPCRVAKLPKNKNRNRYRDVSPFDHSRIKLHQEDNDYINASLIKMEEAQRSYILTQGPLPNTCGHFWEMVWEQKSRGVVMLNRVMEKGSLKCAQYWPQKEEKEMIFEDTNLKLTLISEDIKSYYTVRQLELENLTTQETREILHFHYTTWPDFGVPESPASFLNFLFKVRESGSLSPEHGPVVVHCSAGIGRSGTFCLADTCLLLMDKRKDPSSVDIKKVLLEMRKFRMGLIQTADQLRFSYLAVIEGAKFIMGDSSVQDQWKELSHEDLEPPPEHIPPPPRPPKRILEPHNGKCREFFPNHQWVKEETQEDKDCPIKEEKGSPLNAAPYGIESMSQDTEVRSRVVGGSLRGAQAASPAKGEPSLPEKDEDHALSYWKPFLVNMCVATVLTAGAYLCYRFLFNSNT
Procedure: High-resolution dose-response screening of PTP1B inhibition was performed in a similar manner to the screening of β-galactosidase inhibition (see above), but with the following changes: 50 mM HEPES pH 7.2 was used in place of PBS; the enzyme solution was 20 mg/l PTP1B in 50 mM HEPES pH 7.2 containing 4 mM DTT, 4 mM EDTA, and 4 g/l BSA; and the substrate solution was 68 μM FDP in 50 mM HEPES pH 7.2. In place of the 96-well plate were two 384-well plates containing 704 compounds comprising a subset of the Prestwick Chemical Library® (FIG. 21). These plates were prepared by diluting 1 μl aliquots of the compounds in pure DMSO to 10 μl of 240 μM concentration in 50 mM HEPES pH 7.2 by serial dilution. The compounds occupied columns 1 to 22 of each plate, while the wells in column 23 contained 10 μl of 240 μM sodium suramin (in the same buffer) and the wells in column 24 contained 10 μl of buffer alone.
Injections were performed as described above. […] In this case the dispersion coefficients were assumed to be identical and the compound concentration in each droplet was calculated by assuming a linear correlation between NIR fluorescence and compound concentration.

[2] = target: T2, PTP1B (Homo sapiens, UniProt P18031); assay: Microplate dose-response assay, PTP1B
T2 construct: purchased EMD Biosciences, Inc
T2 sequence (P18031 1-435): T1 sequence (P18031 1-435)
Procedure: For PTP1B, the same approach was used with the following alterations: the inhibitor was diluted in 50 mM HEPES pH 7.2; the solution of enzyme was 10 mg/l PTP1B (EMD Biosciences, Inc., California, USA) in 50 mM HEPES pH 7.2 containing 2 mM DTT, 2 mM EDTA, and 2 g/l BSA; and the solution of substrate was 68 μM FDP in 50 mM HEPES pH 7.2.

[3] = target: T3, β-galactosidase (Escherichia coli, UniProt P00722); assay: Standard microplate assay (Example 1 comparison values); design: purchased Sigma-Aldrich Co; conditions: read-out: KM of RBG measured in a standard microplate assay
T3 sequence (P00722 2-1024 limits assumed): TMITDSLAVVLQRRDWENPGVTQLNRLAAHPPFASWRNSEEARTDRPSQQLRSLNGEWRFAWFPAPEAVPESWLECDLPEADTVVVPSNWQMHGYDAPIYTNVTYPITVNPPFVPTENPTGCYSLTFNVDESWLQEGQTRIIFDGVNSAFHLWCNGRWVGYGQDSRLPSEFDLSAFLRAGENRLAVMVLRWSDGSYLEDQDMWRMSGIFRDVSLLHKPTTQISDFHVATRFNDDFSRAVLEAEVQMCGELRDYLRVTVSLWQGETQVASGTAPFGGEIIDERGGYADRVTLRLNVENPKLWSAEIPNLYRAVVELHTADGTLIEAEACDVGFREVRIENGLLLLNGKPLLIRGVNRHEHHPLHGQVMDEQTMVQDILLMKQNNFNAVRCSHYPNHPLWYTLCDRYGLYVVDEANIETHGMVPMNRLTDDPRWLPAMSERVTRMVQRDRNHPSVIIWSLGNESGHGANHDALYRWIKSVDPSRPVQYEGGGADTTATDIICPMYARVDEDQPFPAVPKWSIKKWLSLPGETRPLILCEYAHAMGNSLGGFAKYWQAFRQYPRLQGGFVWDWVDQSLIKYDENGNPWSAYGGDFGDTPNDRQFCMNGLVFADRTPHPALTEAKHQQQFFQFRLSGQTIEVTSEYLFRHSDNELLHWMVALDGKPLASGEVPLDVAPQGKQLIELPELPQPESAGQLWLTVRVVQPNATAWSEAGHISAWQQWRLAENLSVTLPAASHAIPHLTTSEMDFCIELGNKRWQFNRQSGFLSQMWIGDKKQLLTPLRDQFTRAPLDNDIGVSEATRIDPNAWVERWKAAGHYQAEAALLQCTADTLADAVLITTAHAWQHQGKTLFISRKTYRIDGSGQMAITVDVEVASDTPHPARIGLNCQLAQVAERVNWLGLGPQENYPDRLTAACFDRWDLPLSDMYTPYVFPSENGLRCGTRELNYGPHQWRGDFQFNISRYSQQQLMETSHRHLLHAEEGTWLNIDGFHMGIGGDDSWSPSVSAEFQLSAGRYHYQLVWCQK

[4] = target: T3, β-galactosidase; assay: Droplet microfluidic KM measurement, on-chip dilution system (Example 1e); design: purchased Sigma-Aldrich Co; conditions: 75 s droplet incubation, Michaelis-Menten fit, read-out: KM of RBG in the enzyme/substrate system
Procedure: In the examples, the model systems comprised an enzyme, a substrate, and an inhibitor for IC50 measurements and an enzyme and substrate alone for KM measurements. In all cases the enzyme was β-galactosidase (Sigma-Aldrich Co.), the substrate was resorufin β-D-galactopyranoside (RBG; Invitrogen Corporation), and the inhibitor was phenylethyl β-D-thiogalactopyranoside (PETG; Invitrogen Corporation).
An aqueous phase of 520 μM RBG (the substrate), 100 μM sodium fluorescein, and 5% (v/v) DMSO in PBS were injected into the ‘compound’ input of the microfluidic device (FIG. 4) at a flow rate of 111 μl/hr. A second aqueous phase, 5% (v/v) DMSO in PBS, was injected into the ‘diluent’ input at a flow rate of 389 μl/hr. […]
A series of microdroplets were created containing RBG (and sodium fluorescein) at different concentrations: from zero to 260 μM (50 μM sodium fluorescein) and then from 260 μM to zero. […] The amounts of fluorescent resorufin (liberated by β-galactosidase activity) and sodium fluorescein were measured for each droplet by monitoring fluorescence intensity in the 590-625 and 500-520 nm channels, respectively.
A Michaelis-Menten curve was fitted to the points using the DRC package in R (FIG. 8). […] This value compares favorably to the value measured in a standard microplate assay: 115.6 μM (95% confidence intervals: 102.7-128.6 μM).

effect on PTP1B in high-resolution dose-response curves ([1]; droplets)	IC50 ([1]; droplets, 4-parameter Hill fit)	confirmation of activity in microplate [2]	inhibition ([1]; 50 μM droplets)	Compound	Km [3]	Km [4]
weak activator		confirmed in microplate		O=C(O)c1cc(-c2ccc(F)cc2F)ccc1O [diflunisal]		
weak inhibitor		not confirmed in microplate		Cn1cc[nH]c1=S [methimazole]		

Second part, the compound before the results:

Compound	effect on PTP1B in high-resolution dose-response curves ([1]; droplets)	IC50 ([1]; droplets, 4-parameter Hill fit)	confirmation of activity in microplate [2]	inhibition ([1]; 50 μM droplets)	Km [3]	Km [4]
NC(=O)c1cc[n+](CC2=C(C(=O)[O-])N3C(=O)[C@@H](NC(=O)[C@@H](c4ccccc4)S(=O)(=O)[O-])[C@H]3SC2)cc1.[Na+] [sodium cefsulodine]	strong inhibition of PTP1B	33 µM	confirmed in microplate			
O=c1ccc2nc3ccc(O[C@@H]4O[C@H](CO)[C@H](O)[C@H](O)[C@H]4O)cc3oc-2c1 [RBG, resorufin β-D-galactopyranoside]					116 µM	446 µM
Cc1ccc(C(=O)Nc2ccc(S(=O)(=O)[O-])c3cc(S(=O)(=O)[O-])cc(S(=O)(=O)[O-])c23)cc1NC(=O)c1cccc(NC(=O)Nc2cccc(C(=O)Nc3cc(C(=O)Nc4ccc(S(=O)(=O)[O-])c5cc(S(=O)(=O)[O-])cc(S(=O)(=O)[O-])c45)ccc3C)c2)c1.[Na+].[Na+].[Na+].[Na+].[Na+].[Na+] [sodium suramin]	activate PTP1B at low concentrations (<10 μM) and inhibit it at higher concentrations		confirmed in microplate	89.9%		
